From US8110543B2, “Anti-invasive and anti-angiogenic compositions” (Angstrom Pharmaceuticals, Inc., priority 1997, dated 2012)

Columns and labels:
[1] = tested on: 3LL; assay: 3LL metastasis model, related peptides; set-up: species or system mice; conditions: mouse, in vivo
Source text: This model has been utilized by a number of investigators. See, for example, Gorelik, E. et al., J. Nat'l. Canc. Inst. 65:1257-1264 (1980); Gorelik, E. et al., Rec. Results Canc Res. 75:20-28 (1980); Isakov, N. et al., Invasion Metas. 2:12-32 (1982); Talmadge J. E. et al., J. Nat'l. Canc. Inst. 69:975-980 (1982); Hilgard, P. et al, Br. J. Cancer 35:78-86 (1977)). Test mice are male C57BL/6 mice, 2-3 months old. Following sc, im, or intra-footpad implantation, this tumor produces metastases, preferentially in the lungs. With some lines of the tumor, the primary tumor exerts anti-metastatic effects and must first be excised before study of the metastatic phase (see also U.S. Pat. No. 5,639,725).
Single-cell suspensions are prepared from solid tumors by treating minced tumor tissue with a solution of 0.3% trypsin. Cells are washed 3 times with PBS (pH 7.4) and suspended in PBS. Viability of the 3LL cells prepared in this way is generally about 95-99% (by trypan blue dye exclusion). Viable tumor cells (3×10^4-5×10^6) suspended in 0.05 ml PBS are injected subcutaneously, either in the dorsal region or into one hind foot pad of C57BL/6 mice. Visible tumors appear after 3-4 days after dorsal sc injection of 10^6 cells. The day of tumor appearance and the diameters of established tumors are measured by caliper every two days.
The treatment is given as one or two doses of peptide or derivative, per week. In another embodiment, the peptide is delivered by osmotic minipump.
Lungs are removed and weighed. Lungs are fixed in Bouin's solution and the number of visible metastases is recorded. The diameters of the metastases are also measured using a binocular stereoscope equipped with a micrometer-containing ocular under 8× magnification. On the basis of the recorded diameters, it is possible to calculate the volume of each metastasis. To determine the total volume of metastases per lung, the mean number of visible metastases is multiplied by the mean volume of metastases. To further determine metastatic growth, it is possible to measure incorporation of ^125IdUrd into lung cells (Thakur, M. L. et al., J. Lab. Clin. Med. 89:217-228 (1977). Ten days following tumor amputation, 25 μg of fluorodeoxyuridine is inoculated into the peritoneums of tumor-bearing (and, if used, tumor-resected mice). After 30 min, mice are given 1 μCi of ^125IdUrd (iododeoxyuridine). One day later, lungs and spleens are removed and weighed, and a degree of ^125IdUrd incorporation is measured using a gamma counter.
(§1) In addition to Å6, other related peptide compounds described above are tested for efficacy in vivo in the 3LL model (as provided above) as well as the PC-3 model. PC-3 cells transfected with the gene encoding the enzyme chloramphenicol acetyl-transferase (CAT) are inoculated into mice i.v. at doses of 1×10^6 cells per mouse. These mice are implanted with a minipump, as above, which dispenses 100 mg/kg/day of the peptide or vehicle over a period of 14 or 21 days. At termination of treatment, the animals are euthanized and the tumor marker probe is assayed in regional lymph nodes, femurs, lungs, and brain.

[2] = tested on: Mat B-III tumors; assay: Rat syngeneic Mat B-III breast cancer model; type: in vivo; conditions: comparative analysis of related peptides
Procedure: The effects of the compounds are tested on tumor progression in a rat syngeneic model of breast cancer (Xing and Rabbani, 1996). Mat BIII rat breast tumor cells (1×10^6 cells in PBS, 0.1 mL per rat) are inoculated into the mammary fat pads of female Fisher rats. The test compound is dissolved in PBS (200 mM stock), sterile filtered and dispensed in vivo at a dose of up to about 100 mg/kg/day) using a 14-day Alza osmotic mini-pump implanted intraperitoneally at the time of inoculation. Control animals receive vehicle (PBS) alone. Animals are euthanized at day 14 and examined for metastasis in the spleen, lungs, liver, kidney and lymph nodes. In addition, the primary tumors are excised, quantitated, and prepared for immunohistochemistry.
The rat syngeneic breast cancer system (Xing and Rabbani, 1996) employs Mat BIIIrat breast cancer cells. When Mat B-III cells (1×10^6 cells) are inoculated into the mammary fat pad of female Fisher rats, they form large tumors which metastasize to regional lymph nodes (LNs) and other distal sites within 14-20 days.
Å6 was initially delivered prophylactically (infusion starting on the day of tumor inoculation) using an Alzet mini-pump that delivered 75 mg/kg/day. […] Metastasis was quantitated by counting the number of macroscopic foci without regard for their size.
Estrogen receptor-positive Mat B-III tumors were used to test combination treatment with Å6 (75 mg/kg/day) and TAM (3 mg/kg/day). In contrast to previous studies, the Mat B-III tumors (inoculated in the mammary fat pad) were staged to 40-50 mm^3 prior to the initiation of treatment. Treatment was continued for 8 days during which time primary tumor growth was measured using calipers (FIG. 14).

[3] = tested on: 3LL cells; assay: Tumor angiogenesis (microvessel density) in 3LL model; type: in vivo, Mice; conditions: 100-250 mg/kg/day; compared to controls
Procedure: Angiogenesis is measured by determining microvessel density using immunostaining for CD31 (also known as platelet-endothelial cell adhesion molecule or PECAM). Results are reported as the average microvessel density of 5 fields each from 5 different sections (Penfold et al., 1996). Typically, the whole tumor is excised, sectioned and the sections examined histologically for microvessel density using appropriate stains or labels for other markers.
Angiogenesis induced by tumor growth and metastasis in vivo is examined in the models systems described above. Mice injected with 3LL cells are treated either with peptide or with vehicle and are sacrificed at various time points. Angiogenesis is assessed by determining microvessel density (MVD) using an antibody specific for microvascular endothelium or other markers of growing blood vessels, such as PECAM (CD31). Such an antibody is employed in conventional immunohistological methods to immunostain tissue sections as described by Penfold et al., supra. A large number of such antibodies is commercially available, for example the JC70 mAb. The MVD are correlated with other measures of tumor behavior including lymph node status and primary tumor size and rate of growth. In humans as reported by Penfold et al., supra, tumor MVD correlates with lymph node metastasis and is independent of tumor size, growth rate or type of histological differentiation.
The compounds are given i.v., i.p., or by osmotic minipump Typical dosages are 100-250 mg/kg/day. At various time points, two animals are sacrificed, and the tumor tissue and surrounding tissue is prepared for histological examination. Results are reported as the average microvessel density of 5 fields each from 5 different sections. The following seven compounds are tested: Ac-[…]-Am (SEQ ID NO:2), Ac-[…]-Am (SEQ ID NO: 6) (disubstitution variant at positions 3 and 4), Ac-[…]-Am (SEQ ID NO: 7) (disubstitution variant at positions 7 and 8), Ac-[…]-Am (SEQ ID NO: 8) (substitution variant at position 1), Ac-PSSPPEE-Am (SEQ ID NO: 4) (deletion variant, position 1 of SEQ ID NO:2 deleted), Ac-KPSSPPE-Am (SEQ ID NO: 5) (deletion variant, position 8 of SEQ ID NO:2 deleted), and Ac-[…]-Am (SEQ ID NO:1).

[4] = tested on: PC-3 cells; assay: PC-3 CAT metastasis model; type: in vivo, mice; conditions: minipump 100 mg/kg/day, 14 or 21 days
Procedure: The compounds of this invention are also tested for inhibition of late metastasis using an experimental metastasis model (Crowley et al., 1993). Late metastasis involves the steps of attachment and extravasation of tumor cells, local invasion, seeding, proliferation and angiogenesis.
Human prostatic carcinoma cells (PC-3) transfected with a reporter gene, preferably the green fluorescent protein (GFP) gene, but as an alternative with a gene encoding the enzymes chioramphenicol acetyl-transferase (CAT), luciferase or LacZ. This permits utilization of either of these markers (fluorescence detection of GFP or histochemical colorimetric detection of enzymatic activity) for following the fate of these cells. Cells are injected, preferably iv, and metastases identified after about 14 days, particularly in the lungs but also in regional lymph nodes, femurs and brain. This mimics the organ tropism of naturally occurring metastases of prostate cancer. For example, GFP-expressing PC-3 cells (1×10^6 cells per mouse) are injected iv into the tail veins of nude (nu/nu) mice. Animals are also implanted with mini-pumps (sub-dermally on the back) dispensing either the test compound (at least about 100 mg/kg/day) or vehicle. The animals are euthanized after 14 days and their organs prepared for histological examination. Single metastatic cells and foci are visualized and quantitated by fluorescence microscopy or light microscopic histochemistry or by grinding the tissue and quantitative colorimetric assay of the detectable label.
as §1

[5] = tested on: human prostate cancer line PC-3; assay: Matrigel invasion assay, PC-3 cells; type: cell-based; conditions: 5 μM (FIG. 1, FIG. 2)
Procedure: Several peptides were tested for anti-invasive capacity in a Matrigel® invasion assay system as indicated above (Kleinman et al., supra; Parish et al., supra). Several invasive human tumor lines (PC-3, MDA-MB-231) and non-human tumors (3LL, Mat B-III) were examined. The rat breast cancer line Mat B III and the human prostate cancer line PC-3 were initially used.
Tumor cells (5×10^5/mL, in a volume of 200 μL) in serum-free RPMI 1640 medium were added to a disposable transwell invasion chamber coated with Matrigel® (Becton Dickinson, Lincoln Park, N.J.). The invasion chambers were placed in 24-well tissue culture plates filled with serum-free RPMI-1640 and the plates were placed in an atmosphere of 5% CO2 in humidified air at 37° C. for 48-72 hours. The chambers were then removed, inverted, and the cells which had invaded (and now appeared on the bottom face of the invasion chamber) were fixed and stained using Diff-Quick® (Scientific Products). Cells were counted in 10 different fields on each filter and an average obtained.

Substance	metastasis, 3LL model [1]	number of metastases in the spleen, lungs, liver, kidney and lymph nodes [2]	size of the primary tumor [2]	number of microvessels in the region of the primary tumor [3]	metastasis, PC-3 model [4]	in vitro invasion of PC-3 cells in a Matrigel system [5]
Ac-KPSSPPDD-Am: disubstitution variant at positions 7 and 8 (SEQ ID NO: 7) (Ac-KPSSPPDD-NH2)	markedly inhibited	significant reduction	significant reduction	significant reduction	markedly inhibited	–
Ac-KPTTPPEE-Am: disubstitution variant at positions 3 and 4 (SEQ ID NO: 6) (Ac-KPTTPPEE-NH2)	markedly inhibited	significant reduction	significant reduction	significant reduction	markedly inhibited	–
Ac-KPSSPPEELK-Am: capped counterpart of KPSSPPEELK (SEQ ID NO: 1) (Ac-KPSSPPEELK-NH2) [reference compound]	no reduction	fail to cause a significant change	fail to cause a significant change	no significant effect	no reduction	–
KPSSPPEELK [Lys-Pro-Ser-Ser-Pro-Pro-Glu-Glu-Leu-Lys, reference compound]	–	–	–	–	–	inactive
Ac-Lys-Pro-Ser-Ser-Pro-Pro-Glu-Am (Ac-KPSSPPE-NH2) [Ac-KPSSPPE-Am]	no reduction	fail to cause a significant change	fail to cause a significant change	no significant effect	no reduction	–
Ac-Pro-Ser-Ser-Pro-Pro-Glu-Glu-Am (Ac-PSSPPEE-NH2) [Ac-PSSPPEE-Am]	no reduction	fail to cause a significant change	fail to cause a significant change	no significant effect	no reduction	–
Ac-RPSSPPEE-Am: substitution variant at position 1 (SEQ ID NO: 8) (Ac-RPSSPPEE-NH2)	markedly inhibited	significant reduction	significant reduction	significant reduction	markedly inhibited	–
